Results reported in patent publication US12378216B2, “Heteroaryl(heterocyclyl)methanol compounds useful in the treatment of hyperglycaemia” (ATROGI AB, priority 2019, dated 2025).
Where a name gives a salt, the structure may show the parent alone.

Key:
L6-myotubes = assay: Glucose uptake in differentiated L6-myotubes (3H-2-deoxy-glucose); type: cell-based; details: for Biological example 1 (glucose uptake, activity compared to that of isoproterenol): L6-myotubes, agonist final concentration 1×10^−5, relative to isoproterenol, Table 1; for Biological example 3: Table 2, the assay of Biological Example 1 (glucose uptake, L6-myotubes, agonist 1×10^−5, relative to isoproterenol)
Description: (§1) L6-myoblasts were grown in Dulbecco's Modified Eagle's Medium (DMEM) containing 4.5 g/I glucose supplemented with 10% fetal bovine serum, 2 mM L-Glutamine, 50 U/ml penicillin, 50 μg/ml streptomycin and 10 mM HEPES. Cells were plated at 1×10^5 cells per ml in 24-well plates. After reaching 90% confluence the cells were grown in medium containing 2% FBS for 7 days where upon cells differentiated into myotubes.
Differentiated L6-myotubes were serum-starved overnight in medium containing 0.5% fatty-acid free BSA and stimulated with agonist, final concentration 1×10^−5. After 1 h 40 min cells were washed with warm, glucose free medium or PBS and another portion of agonist was added to glucose free medium. After 20 min the cells were exposed to 50 nM ^3H-2-deoxy-glucose for another 10 min before washed in ice cold glucose free medium or PBS and lysed in 0.2 M NaOH for 1 h in 60° C.

[1] = system: Intracellular cAMP levels; assay: Measurement of intracellular cAMP levels in differentiated L6 cells (alpha screen cAMP kit); type: cell-based; details: for Biological example 2 (intracellular cAMP levels, activity compared to that of isoproterenol): differentiated cells, agonist final concentration 1×10-^5, 15 min, relative to isoproterenol, Table 1; for Biological example 4: Table 2, the assay of Biological Example 2 (intracellular cAMP, agonist 1×10-^5, relative to isoproterenol)
Description: as §1
Differentiated cells were serum-starved overnight and stimulated with agonist, final concentration 1×10-^5, for 15 min in stimulation buffer (HBSS supplemented with 1% BSA, 5 mM HEPES and 1 mM IBMX, pH 7.4) The medium was then aspirated and to end the reaction 100 μL of 95% EtOH was added to each well of a 24-well plate and cells were kept in −20° C. over night. The EtOH was let to evaporate and 500 μL of lysis buffer (1% BSA, 5 mM HEPES and 0.3% Tween-20, pH 7.4) was added to each well before put in −80° C. for 30 min and then kept in −20° C. Intracellular cAMP levels were detected using an alpha screen cAMP kit (6760635D from Perkin Elmer). The activity for each compound is compared to that of isoproterenol.

SMILES: CCC[C@H]1CCC[C@H]([C@H](O)c2cncc(F)c2)N1 [Example 1, (R)-(5-Fluoropyridin-3-yl)((2R,6S)-6-propylpiperidin-2-yl)methanol dihydrochloride]
- Biological example 1 (glucose uptake, activity compared to that of isoproterenol) (L6-myotubes): − (less than 25%)
- Biological example 2 (intracellular cAMP levels, activity compared to that of isoproterenol) [1]: − (less than 25%)

SMILES: CCC[C@H]1CCC[C@H]([C@@H](O)c2cncc(F)c2)N1 [Example 2, (S)-(5-Fluoropyridin-3-yl)((2R,6S)-6-propylpiperidin-2-yl)methanol]
- Biological example 1 (glucose uptake, activity compared to that of isoproterenol) (L6-myotubes): − (less than 25%)
- Biological example 2 (intracellular cAMP levels, activity compared to that of isoproterenol) [1]: − (less than 25%)

SMILES: CCC[C@@H]1CC[C@H]([C@H](O)c2cncc(F)c2)N1.O=C(O)/C=C\C(=O)O [Example 3, (R)-(5-Fluoropyridin-3-yl)((2R,5R)-5-propylpyrrolidin-2-yl)methanol maleate]
- Biological example 1 (glucose uptake, activity compared to that of isoproterenol) (L6-myotubes): +++ (more than 75% of that of isoproterenol)
- Biological example 2 (intracellular cAMP levels, activity compared to that of isoproterenol) [1]: − (less than 25%)

SMILES: CCC[C@@H]1CC[C@H]([C@@H](O)c2cncc(F)c2)N1.O=C(O)/C=C\C(=O)O [Example 4, (S)-(5-Fluoropyridin-3-yl)((2R,5R)-5-propylpyrrolidin-2-yl)methanol maleate]
- Biological example 1 (glucose uptake, activity compared to that of isoproterenol) (L6-myotubes): ++ (between 75 and 50%)
- Biological example 2 (intracellular cAMP levels, activity compared to that of isoproterenol) [1]: − (less than 25%)

SMILES: CC1(C)CC[C@H]([C@H](O)c2cncc(F)c2)N1 [Example 5, (R)-((R)-5,5-Dimethylpyrrolidin-2-yl)(5-fluoropyridin-3-yl)methanol]
- Biological example 1 (glucose uptake, activity compared to that of isoproterenol) (L6-myotubes): +++ (more than 75% of that of isoproterenol)
- Biological example 2 (intracellular cAMP levels, activity compared to that of isoproterenol) [1]: − (less than 25%)

SMILES: CC1(C)CC[C@H]([C@@H](O)c2cncc(F)c2)N1 [Example 6, (S)-((R)-5,5-Dimethylpyrrolidin-2-yl) (5-fluoropyridin-3-yl)methanol]
- Biological example 1 (glucose uptake, activity compared to that of isoproterenol) (L6-myotubes): − (less than 25%)
- Biological example 2 (intracellular cAMP levels, activity compared to that of isoproterenol) [1]: − (less than 25%)

SMILES: CC1(C)CC[C@H]([C@H](O)c2cncc(O)c2)N1 [Example 7]
- Biological example 1 (glucose uptake, activity compared to that of isoproterenol) (L6-myotubes): ++ (between 75 and 50%)
- Biological example 2 (intracellular cAMP levels, activity compared to that of isoproterenol) [1]: − (less than 25%)

SMILES: CC1(C)CC[C@H]([C@@H](O)c2cncc(O)c2)N1 [Example 8, 5-((S)-((R)-5,5-dimethylpyrrolidin-2-yl)(hydroxy)methyl)pyridin-3-ol]
- Biological example 1 (glucose uptake, activity compared to that of isoproterenol) (L6-myotubes): + (between 50 and 25%)
- Biological example 2 (intracellular cAMP levels, activity compared to that of isoproterenol) [1]: − (less than 25%)

SMILES: CC1(C)C[C@H]([C@H](O)c2cncc(F)c2)N1 [Example 9, (R)-((R)-4,4-Dimethylazetidin-2-yl)(5-fluoropyridine-3-yl)methanol dihydrochloride]
- Biological example 3 (L6-myotubes): +++ (more than 75% of that of isoproterenol)
- Biological example 4 [1]: − (less than 25%)

SMILES: CC1(C)C[C@@H]([C@H](O)c2cncc(F)c2)N1 [Example 10, (R)-((S)-4,4-Dimethylazetidin-2-yl)(5-fluoropyridine-3-yl)methanol dihydrochloride]
- Biological example 3 (L6-myotubes): + (between 50 and 25%)
- Biological example 4 [1]: − (less than 25%)

SMILES: CC1(C)C[C@@H]([C@@H](O)c2cncc(F)c2)N1 [Example 11, (S)-((S)-4,4-Dimethylazetidin-2-yl) (5-fluoropyridine-3-yl) methanol dihydrochloride]
- Biological example 3 (L6-myotubes): + (between 50 and 25%)
- Biological example 4 [1]: − (less than 25%)

SMILES: CC1(C)C[C@H]([C@@H](O)c2cncc(F)c2)N1 [Example 12, (S)-((R)-4,4-Dimethylazetidin-2-yl)(5-fluoropyridin-3-yl)methanol dihydrochloride]
- Biological example 3 (L6-myotubes): + (between 50 and 25%)
- Biological example 4 [1]: − (less than 25%)

SMILES: CCC[C@@H]1CCCC[C@H]([C@H](O)c2cncc(F)c2)N1 [Example 13, (R)-(5-Fluoropyridin-3-yl)((2R,7R)-7-propylazepan-2-yl)methanol]
- Biological example 3 (L6-myotubes): − (less than 25%)
- Biological example 4 [1]: − (less than 25%)

SMILES: CCC[C@@H]1CCCC[C@H]([C@@H](O)c2cncc(F)c2)N1 [Example 14, (S)-(5-Fluoropyridin-3-yl)((2R,7R)-7-propylazepan-2-yl)methanol]
- Biological example 3 (L6-myotubes): − (less than 25%)
- Biological example 4 [1]: − (less than 25%)

SMILES: CCC[C@H]1CCCC[C@@H]([C@H](O)c2cncc(F)c2)N1 [Example 15, (R)-(5-Fluoropyridin-3-yl)(S,7S)-7-propylazepan-2-yl)methanol dihydrochloride]
- Biological example 3 (L6-myotubes): ++ (between 75 and 50%)

SMILES: CCC[C@H]1CCCC[C@@H]([C@@H](O)c2cncc(F)c2)N1 [Example 16]
- Biological example 3 (L6-myotubes): + (between 50 and 25%)
